Reference: publication PMC6933707, “Palmitoylethanolamide counteracts substance P-induced mast cell activation in vitro by stimulating diacylglycerol lipase activity” (Journal of Neuroinflammation, 2019)

How the values were obtained:
MGL = MGL enzyme activity assay (COS-7 cytosolic fractions); assay type: biochemical; conditions: up to 25 μM
Method: The 10,000×g cytosolic fractions obtained from COS-7 cells (100 μg of protein) were incubated with 2-arachidonoyl-[^3H]-glycerol (40 Ci/mmol, St. Louis, MO, USA) diluted with non-radiolabeled 2-AG (20 μM) in the presence of vehicle or increasing concentrations of PEA (0.1-25 μM), in Tris-HCl 50 mM pH 7.4 at 37 °C for 20 min [42]. After the incubation, the amounts of [^3H]-glycerol were measured in the aqueous phase [after extraction of the incubation mixture with 2 volumes of CHCl3/CH3OH (1:1, v/v)] by using Liquid Scintillation Analyzer (TRI-carb 2100TR).

human recombinant DAGL-α = molecular target: T1, human recombinant DAGL-α (Homo sapiens, UniProt Q9Y4D2); assay: DAGL-α enzyme activity assay (COS-7 membranes; radiolabelled substrate or 2-AG by LC-MS); assay type: biochemical
T1 construct: expressed in transfected cells; host or cells: COS-7
T1 sequence (Q9Y4D2 1-1042): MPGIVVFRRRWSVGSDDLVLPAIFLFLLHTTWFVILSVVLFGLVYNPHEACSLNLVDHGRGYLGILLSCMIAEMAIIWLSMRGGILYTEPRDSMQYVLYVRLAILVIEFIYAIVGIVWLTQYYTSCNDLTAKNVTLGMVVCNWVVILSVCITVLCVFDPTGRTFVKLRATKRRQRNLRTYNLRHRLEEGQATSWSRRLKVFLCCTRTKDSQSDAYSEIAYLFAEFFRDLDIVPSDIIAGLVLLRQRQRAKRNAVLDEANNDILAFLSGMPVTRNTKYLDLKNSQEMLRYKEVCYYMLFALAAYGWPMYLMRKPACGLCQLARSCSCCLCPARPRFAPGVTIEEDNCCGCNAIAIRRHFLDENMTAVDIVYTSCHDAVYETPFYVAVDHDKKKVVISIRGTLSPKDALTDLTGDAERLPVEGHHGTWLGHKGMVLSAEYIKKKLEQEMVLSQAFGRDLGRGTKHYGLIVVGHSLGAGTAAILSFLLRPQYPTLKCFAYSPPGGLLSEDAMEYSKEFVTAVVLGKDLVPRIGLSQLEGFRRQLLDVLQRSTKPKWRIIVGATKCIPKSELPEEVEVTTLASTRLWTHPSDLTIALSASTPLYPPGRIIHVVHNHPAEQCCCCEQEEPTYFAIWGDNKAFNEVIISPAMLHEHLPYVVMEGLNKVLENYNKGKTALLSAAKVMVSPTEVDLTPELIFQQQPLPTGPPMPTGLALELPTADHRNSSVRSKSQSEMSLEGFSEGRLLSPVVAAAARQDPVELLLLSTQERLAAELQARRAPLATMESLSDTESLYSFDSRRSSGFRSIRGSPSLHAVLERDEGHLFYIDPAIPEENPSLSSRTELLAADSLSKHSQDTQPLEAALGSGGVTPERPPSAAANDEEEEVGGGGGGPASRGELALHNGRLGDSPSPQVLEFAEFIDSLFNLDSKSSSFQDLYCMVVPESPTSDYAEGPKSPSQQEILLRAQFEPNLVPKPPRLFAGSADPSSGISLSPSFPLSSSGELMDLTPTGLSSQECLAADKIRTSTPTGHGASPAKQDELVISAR
Method: DAGL-α enzyme activity was assessed as previously reported by using membrane preparations (50 μg of protein) obtained from COS-7 cells overexpressing the human recombinant DAGL-α enzyme, and 1-[^14C]oleoyl-2-arachidonoylglycerol (1.0 mCi/mmol, 25 μM, synthesized as previously reported, as substrate in the presence of vehicle or increasing concentrations of PEA (0.1–25 μM) in Tris-HCl 50 mM pH 7.4. After the incubation (20 min at 37 °C), lipids were extracted with two volumes of CHCl3/CH3OH (2:1, v/v). The organic extracts, lyophilized under vacuum, were used to quantify the levels of 2-AG by LC-APCI-MS (as described above), or purified by using TLC on silica on polypropylene plates eluted in CHCl3/CH3OH/NH4OH (85:15:0.1%, v/v) as the eluting solvent. Bands corresponding to [^14C]-oleic acid were cut and their radioactivity was measured by using Liquid Scintillation Analyzer (TRI-carb 2100TR). Data were expressed as % of DAGL-α stimulation. To quantify the levels of 2-AG by LC-APCI-MS a non-radiolabeled 1-oleoyl-2-arachidonoylglycerol substrate was used.

RBL-2H3 cells = assay: Toluidine blue staining, percentage of degranulation; assay type: cell-based, rat
Method: SP-stimulated RBL-2H3 cells [plated on poly-L-lysine (33 μg/ml) coated slides (Deckglaser, 21 × 26 mm) into 6-well culture dishes at a cell density of 9 × 10^5 cells per well] were treated and incubated as described above for histamine release assay. After 15 min, the cells were fixed with paraformaldehyde at 4% for 20 min and incubated for 3 min with toluidine blue at 0.01% in 3% acetic acid. Subsequently, a 5 min wash in distilled water and dehydration in increasing alcohols (90%, 100%) were performed. Cells were then clarified by treatment with Xylol for 5 min and finally dried slides were mounted with the DPX histogram upright. The cells were observed using a Leica DMI6000 digital microscope, acquired using the Leica DFC 340FX digital camera connected to the microscope and analyzed using the LAS AF 2.2.0 software. Degranulated RBL-2H3 cells were counted and the percentage of degranulation (based on the number of colorable cells) was calculated.

CCCCCCCCCCCCCCCC(=O)NCCO [PEA, Palmitoylethanolamide]
inhibitory effect on MGL activity (MGL): no inhibitory effect
maximal % inhibition of MGL activity (MGL): < 5%
elevation of levels of 2-AG produced by DAGL-α (LC-MS) (human recombinant DAGL-α; PEA 25 μM + substrate, compared to membrane preparations incubated alone (no substrate, no PEA)): 5.6 fold
elevation of levels of 2-AG produced by DAGL-α (LC-MS) (human recombinant DAGL-α; PEA 25 μM, compared to membrane preparations incubated with the substrate 1-oleoyl-2-arachidonoylglycerol and without PEA): 1.4 fold
EC50 (human recombinant DAGL-α; membranes of COS-7 cells over-expressing DAGL-α, 20 min 37 °C, read-out: EC50, stimulation of DAGL-α activity): 17.3 ± 2.35 µM
number of degranulated cells (RBL-2H3 cells; SP (10 μM)-stimulated cells, compound 0.1 μM, 15 min, vs SP + vehicle): comparable
number of degranulated cells (RBL-2H3 cells; SP (10 μM)-stimulated cells, compound 10 μM, 15 min, vs SP + vehicle): reduced the number of SP-degranulated RBL-2H3 cells
number of degranulated cells (RBL-2H3 cells; SP-stimulated cells co-treated with PEA 0.1 μM and 2-AG 0.1 μM, 15 min): able to reduce
number of degranulated cells (RBL-2H3 cells; SP-stimulated cells co-treated with PEA 10 μM and AM630 0.1 μM, vs SP + vehicle or SP + AM630): comparable
number of degranulated cells (RBL-2H3 cells; substance alone 10 μM, 15 min, vs vehicle): no effect
